In patent US8148359B2, “Chelating agents of metal ions, their methods of preparation and their applications” (Commissariat a l'Energie Atomique, priority 2009, dated 2012):
Read-outs that look alike come from different tables or passages of the source.

Legend:
[1] = pH = 7.4; difference matches the Cu(II) and Zn(II) values of the table
Text: (§1) In general, the formation of a complex from a metal M and n ligands L is written: M+nL⇄[M(L)n]
(§2) Associated with this reaction is an apparent complexation constant log Kapp, where: Kapp=[ML]/[M][L]tot in which: • [ML] is the concentration of complex, • [M] is the concentration of metal, and • [L]tot is the concentration of […] ligand (whatever its protonated form).

[2] = Apparent complexation constants of known chelating agents, Hg(II); format: binding; conditions: pH = 7.4; log Kapp(Hg) - log Kapp(Zn)
Text: as §1, §2

[3] = Cu(I) affinity by competition with bathocuproine disulfonate (BCS), UV-visible; format: binding; conditions: for BCS equivalents (number of equivalents of BCS relative to Cu necessary to displace 50% of the copper complexed by the ligand): [Cu]0 = 0.9 [L]o, 20 mM phosphate buffer, pH 7.4, 298 K; for Cu/Zn Sel. (log Kapp(Cu) - log Kapp(Zn)): Cu(I) versus Zn(II); for Kapp for Cu(I): pH 7.4, 20 mM phosphate buffer
Experimental: Since the —SH thiol functions of the chelating agents are capable of becoming oxidized in air, all the solutions were prepared in a glovebox under an argon atmosphere. Ligand solutions were then prepared, before each experiment, using water that had been deoxygenated and purified with a Millipore Milli-Q® system containing 20 mM of a solution of phosphate buffer (pH=7.4) and of acetonitrile (v/v: 9/1).
This method uses 5,5′-dithiobis-2-nitrobenzoic acid (DNTB) as indicator, each free thiol group present in the ligand producing 1 equivalent of TNB^2− (ε^412 nm (TNB^2−)=14 150 M^−1.cm^−1, ε^412 nm being the molar extinction coefficient for TNB^2− at 412 nm). The concentrations of the ligand solution are between 30 and 100 μm.
The solutions of Cu(I) copper were prepared by dissolving an appropriate amount of Cu(CH3CN)4 PF6 in deoxygenated acetonitrile. The final concentration is determined by adding an excess of sodium bathocuproine disulfonate (Na2BCS) and by measuring the absorbance of the Cu(BCS)2^3− (λmax=483 nm, ε=13 300 M^−1.cm^−1).
The affinity constants were measured by means of a known competitor having a strong affinity for Cu(I), bathocuproine disulfonate (BCS), which forms Cu(I) complexes of known stability according to the reaction below:
The higher this percentage, the higher the affinity of the sulfur-containing ligand for Cu(I).
The complexes of Cu(I) copper with the ligands are quantitatively determined with bathocuproine disulfonate (BCS) with the aim of measuring their affinity constants. […] The formation of the complex is then carried out by stirring the mixture for 10 minutes under argon.
Aliquots of a solution of bathocuproine disulfonate (BCS) in the same buffer solution are then added to the ligand-copper complex.
The UV-visible spectra are then recorded, and the absorbance stability is verified before the addition of the other aliquots.

[4] = Apparent complexation constants of known chelating agents, Cu(I); format: binding; conditions: pH = 7.4; difference matches the Cu(I) and Zn(II) values of the table
Text: Associated with this reaction is an apparent complexation constant log Kapp, where: Kapp=[ML]/[M][L]tot in which: • [ML] is the concentration of complex, • [M] is the concentration of metal, and • [L]tot is the concentration of free ligand (whatever its protonated form).

[5] = Hg(II) affinity by competition with EDTA; format: binding
Experimental: For Hg(II), which has a very high affinity for thiolate ligands, we performed a competition with EDTA having a known affinity constant (cf. Table IV) according to the following reaction: HgL+EDTA→L+HgEDTA
A solution of mercury is prepared by dissolving HgCl2 in water. An HgL complex is formed by adding aliquots of this mercury solution to a solution of ligand in a 20 mM phosphate buffer solution at pH=7.4, up to 0.9 equivalent. The change in the LMCT band for Hg(II) at 290 nm is subsequently followed by titration with a 5 mM solution of Na2EDTA.

**Q.** For O=C(O)CN(CCN(CC(=O)O)CC(=O)O)CC(=O)O [EDTA, ethylenediaminetetraacetic acid], which Cu/Zn selectivity [1] is on record?
**A.** The Cu/Zn selectivity was 2.3.

**Q.** And the Hg/Zn selectivity [2]?
**A.** The Hg/Zn selectivity was 5.

**Q.** With O=C(CN(CC(=O)NC(CS)C(=O)O)CC(=O)NC(CS)C(=O)O)NC(CS)C(=O)O (stereo not drawn) [Compound 3, NTA(CysOH)3] as the compound, how does the “BCS equivalents (number of equivalents of BCS relative to Cu necessary to displace 50% of the copper complexed by the ligand)” value [3] read?
**A.** Its value is 3.5 equivalents.

**Q.** What does the source list for CC(C)(S)[C@@H](N)C(=O)O [Pen, D-penicillamine]?
**A.** Cu/Zn selectivity [4]: 2.5; Hg/Zn selectivity [2]: 9.1

**Q.** For CCOC(=O)C(CS)NC(=O)CN(CC(=O)NC(CS)C(=O)OCC)CC(=O)NC(CS)C(=O)OCC (stereo not drawn) [Compound 4, NTA(CysOC2H5)3], which “Cu/Ca Sel. (log Kapp(Cu) - log Kapp(Ca))” value ([3]; Cu(I) versus Ca(II)) is on record?
**A.** Its value is over 16.

**Q.** What about the “Cu/Zn Sel. (log Kapp(Cu) - log Kapp(Zn))” value [3] of the same compound?
**A.** The value was 9.9.

**Q.** And the “BCS equivalents (number of equivalents of BCS relative to Cu necessary to displace 50% of the copper complexed by the ligand)” value [3]?
**A.** Its value is 57 equivalents.

**Q.** And the “Kapp for Cu(I)” value [3]?
**A.** Its value is 10^19.

**Q.** What about the “Hg/Ca Sel. (log Kapp(Hg) - log Kapp(Ca))” value ([5]; Hg(II) versus Ca(II)) of the same compound?
**A.** Its value is over 19.5.

**Q.** What about the “Hg/Zn Sel. (log Kapp(Hg) - log Kapp(Zn))” value ([5]; Hg(II) versus Zn(II)) of the same compound?
**A.** The value was over 13.4.

**Q.** Which Hg/Zn selectivity [2] does the source give for OCC(S)CS (stereo not drawn) [BAL, 2,3-dimercaptopropanol] here?
**A.** Its Hg/Zn selectivity is 12.2.

**Q.** Which “Cu/Zn Sel. (log Kapp(Cu) - log Kapp(Zn))” value [3] does the source give for CCOC(=O)[C@H](CS)NC(=O)CN1CCN(CC(=O)N[C@@H](CS)C(=O)OCC)CCN(CC(=O)N[C@@H](CS)C(=O)OCC)CC1 [Compound 9, NOTA(CysOC2H5)3] here?
**A.** The value was 7.5-9.5.

**Q.** What about the “BCS equivalents (number of equivalents of BCS relative to Cu necessary to displace 50% of the copper complexed by the ligand)” value [3] of the same compound?
**A.** Its value is 12 equivalents.

**Q.** With NCCNCCNCCN [Trien, triethylenetetramine] as the compound, how does the Cu/Zn selectivity [1] read?
**A.** Its Cu/Zn selectivity is 8.1.

**Q.** And the Hg/Zn selectivity [2]?
**A.** Its Hg/Zn selectivity is 12.7.

**Q.** For NC(=O)[C@H](CS)NC(=O)CN(CC(=O)N[C@@H](CS)C(N)=O)CC(=O)N[C@@H](CS)C(N)=O [Compound 6, NTA(CysNH2)3], which “BCS equivalents (number of equivalents of BCS relative to Cu necessary to displace 50% of the copper complexed by the ligand)” value [3] is on record?
**A.** Its value is 50 equivalents.

**Q.** And the “Kapp for Cu(I)” value [3]?
**A.** The value was 10^19.
